≈ marks a conversion by molar mass, not a printed value. Read-outs that look alike come from different tables or passages of the source.
What was measured:
rats = experiment: Acute toxic effects after intraperitoneal administration in rats; format: in vivo, Male Harlen-Sprague-Dawley rats; conditions: rat; 20 mg/kg intraperitoneal
Procedure: Male Harlen-Sprague-Dawley rats, 200-300 g were given 20 mg/kg of O-HMM by intraperitoneal injection (control rats received saline vehicle only) and their urine collected for two consecutive 24 hr. periods.

A-101D melanoma = experiment: Inhibition of colony formation by human tumor cell line A-101D (melanoma), long-term exposure; format: cell-based; conditions: 9 days
Procedure: (§1) Cytotoxic activity of O-HMM against in vitro human tumor cells was measured as inhibition of colony formation and the results expressed as a ratio of the number of colonies in test dishes to number of control dishes, times 100 (Table 4).
(§2) Inhibition of colony formation by human tumor
(§3) ^a Percent survival as measured by the number of colonies in test

A-549 lung carcinoma = experiment: Inhibition of colony formation by human tumor cell line A-549 (lung carcinoma), long-term exposure; format: cell-based; conditions: 9 days
Procedure: as §1, §2, §3

male BDF1 mice = experiment: Toxicity study (LD50 study) in mice; format: in vivo; conditions: IP
Procedure: These effects diminished over a period of about 3-5 hours until the animal appeared normal and resumed activity.

A-498 renal carcinoma = experiment: Inhibition of colony formation by human tumor cell line A-498 (renal carcinoma), long-term exposure; format: cell-based; conditions: 9 days
Procedure: as §1, §2, §3

[1] = Rearrangement of O-HMM to HDT (chemical stability); format: physicochemical; conditions: for degraded at 4 h / degraded at 24 h / degraded at 26 h / degraded at 20 h: read-out: HDT (formed by rearrangement, determined by NMR); for remaining at 4 h / remaining at 24 h / remaining at 26 h / remaining at 20 h: read-out: HMM--NO (remaining, determined by NMR); for degraded at 24 h / remaining at 24 h: h2o; for degraded at 20 h / remaining at 20 h: 135° C. sealed tube
Source text: Solvent Temp. Time HMM--NO HDT
^a Yields determined by NMR
^b Sealed tube reaction. Solutions degassed with argon and then seale
^d 0.1 equiv. mchlorobenzoic acid
^e 0.1 equiv. pnitrobenzoic acid
^f 0.05 M HOAc/NaOAc pH 5

[2] = test system: A-549 lung carcinoma, A-101D melanoma, A-498 renal carcinoma and A-204 rhabdomysarcoma; experiment: Comparison of O-HMM with HMM in the human tumor colony formation test systems; format: cell-based; conditions: vs HMM; all four cell lines
Procedure: as §1

[3] = Solubility in lipid and aqueous media; format: physicochemical
A-204 rhabdomysarcoma = experiment: Inhibition of colony formation by human tumor cell line A-204 (rhabdomysarcoma), long-term exposure; format: cell-based; conditions: 9 days
Procedure: as §1, §2, §3

[4] = h2o/h+ (0.05 m hoac/naoac), pH 5, H2O/H+ (0.05 M HOAc/NaOAc pH 5), 25° C.
[5] = h2o/h+ (0.05 m hoac/naoac), pH 5, H2O/H+ (0.05 M HOAc/NaOAc pH 5), 50° C.
[6] = hccl3/h+ (m-chlorobenzoic acid), HCCl3/H+ (0.1 equiv. m-chlorobenzoic acid), 25° C.
[7] = hccl3/h+ (m-chlorobenzoic acid), HCCl3/H+ (0.1 equiv. m-chlorobenzoic acid), 50° C.
[8] = hccl3/h+ (m-chlorobenzoic acid), HCCl3/H+ (0.1 equiv. m-chlorobenzoic acid)
[9] = hccl3/h+ (p-nitrobenzoic acid), HCCl3/H+ (0.1 equiv. p-nitrobenzoic acid), 50° C.

## CN(C)Oc1nc(N(C)C)nc(N(C)C)n1 [O-HMM, 2,4-bis(dimethylamino)-6-[(dimethylamino)oxy]-1,3,5-triazine]
rats
  acute toxic effects: No acute toxic effects were observed
A-101D melanoma; 200 μg/ml
  inhibition of colony formation: Complete inhibition
A-101D melanoma; Homo sapiens, A101D, 216 h, 10 ug/ml, read-out: Percent survival (number of colonies in test dishes to colonies in control dishes times 100)
  viability at 10 µg/mL: 95 ± 10%
A-101D melanoma; Homo sapiens, A101D, 216 h, 20 ug/ml, read-out: Percent survival (number of colonies in test dishes to colonies in control dishes times 100)
  viability at 20 µg/mL: 82 ± 9%
A-101D melanoma; Homo sapiens, A101D, 216 h, 40 ug/ml, read-out: Percent survival (number of colonies in test dishes to colonies in control dishes times 100)
  viability at 40 µg/mL: 50 ± 15%
A-101D melanoma; Homo sapiens, A101D, 216 h, 60 ug/ml, read-out: Percent survival (number of colonies in test dishes to colonies in control dishes times 100)
  viability at 60 µg/mL: 17 ± 16%
A-101D melanoma; Homo sapiens, A101D, 216 h, 80 ug/ml, read-out: Percent survival (number of colonies in test dishes to colonies in control dishes times 100)
  viability at 80 µg/mL: 1 ± 1%
A-101D melanoma; Homo sapiens, A101D, 216 h, 100 ug/ml, read-out: Percent survival (number of colonies in test dishes to colonies in control dishes times 100)
  viability at 100 µg/mL: 0%
A-101D melanoma; Homo sapiens, A101D, 216 h, 120 ug/ml, read-out: Percent survival (number of colonies in test dishes to colonies in control dishes times 100)
  viability at 120 µg/mL: 0%
A-101D melanoma; Homo sapiens, A101D, 216 h, 200 ug/ml, read-out: Percent survival (number of colonies in test dishes to colonies in control dishes times 100)
  viability at 200 µg/mL: 0%
A-549 lung carcinoma; 200 μg/ml
  inhibition of colony formation: Complete inhibition
A-549 lung carcinoma; Homo sapiens, A549, 216 h, 10 ug/ml, read-out: Percent survival (number of colonies in test dishes to colonies in control dishes times 100)
  viability at 10 µg/mL: 91 ± 6%
A-549 lung carcinoma; Homo sapiens, A549, 216 h, 20 ug/ml, read-out: Percent survival (number of colonies in test dishes to colonies in control dishes times 100)
  viability at 20 µg/mL: 94 ± 4%
A-549 lung carcinoma; Homo sapiens, A549, 216 h, 40 ug/ml, read-out: Percent survival (number of colonies in test dishes to colonies in control dishes times 100)
  viability at 40 µg/mL: 69 ± 11%
A-549 lung carcinoma; Homo sapiens, A549, 216 h, 60 ug/ml, read-out: Percent survival (number of colonies in test dishes to colonies in control dishes times 100)
  viability at 60 µg/mL: 9 ± 14%
A-549 lung carcinoma; Homo sapiens, A549, 216 h, 80 ug/ml, read-out: Percent survival (number of colonies in test dishes to colonies in control dishes times 100)
  viability at 80 µg/mL: 0%
A-549 lung carcinoma; Homo sapiens, A549, 216 h, 100 ug/ml, read-out: Percent survival (number of colonies in test dishes to colonies in control dishes times 100)
  viability at 100 µg/mL: 0%
A-549 lung carcinoma; Homo sapiens, A549, 216 h, 120 ug/ml, read-out: Percent survival (number of colonies in test dishes to colonies in control dishes times 100)
  viability at 120 µg/mL: 0%
A-549 lung carcinoma; Homo sapiens, A549, 216 h, 200 ug/ml, read-out: Percent survival (number of colonies in test dishes to colonies in control dishes times 100)
  viability at 200 µg/mL: 0%
Male BDF1 mice
  onset of changes in the mouse's behavior after injection: < 1 min
Male BDF1 mice; 1000 mg/kg
  recovery of the fourth mouse: recovering completely
Male BDF1 mice; mouse
  time of recovery (dose dependence): dose-dependent time of recovery
  time until effects diminished and animal appeared normal: 3 to 5 h
Male BDF1 mice; mouse, 1000 mg/kg
  time to death: ≤ 3 min
Male BDF1 mice; mouse, 1000 mg/kg, 4 mice
  deaths: 3 of the 4
Male BDF1 mice; mouse, 60- and 120-day observation
  long-term effects (weight loss, hair loss, death rate vs control animals): no long-term effects
Male BDF1 mice; mouse, 500, 250, 100, 50 and 25 mg/kg
  recovery of the remaining mice in the other groups: recovered completely in a few hours
Male BDF1 mice; mouse, 1000-25 mg/kg
  toxic phenomenon (flaccid paralysis): dose dependent toxic phenomenon showing a decreasing degree of a flaccid paralysis with decreasing dose
Male BDF1 mice; mouse, inferred from rapid onset of toxic effect
  absorption: very rapid absorption
A-498 renal carcinoma; 200 μg/ml
  inhibition of colony formation: Complete inhibition
A-498 renal carcinoma; Homo sapiens, A498, 216 h, 10 ug/ml, read-out: Percent survival (number of colonies in test dishes to colonies in control dishes times 100)
  viability at 10 µg/mL: 93 ± 3%
A-498 renal carcinoma; Homo sapiens, A498, 216 h, 20 ug/ml, read-out: Percent survival (number of colonies in test dishes to colonies in control dishes times 100)
  viability at 20 µg/mL: 83 ± 7%
A-498 renal carcinoma; Homo sapiens, A498, 216 h, 40 ug/ml, read-out: Percent survival (number of colonies in test dishes to colonies in control dishes times 100)
  viability at 40 µg/mL: 67 ± 14%
A-498 renal carcinoma; Homo sapiens, A498, 216 h, 60 ug/ml, read-out: Percent survival (number of colonies in test dishes to colonies in control dishes times 100)
  viability at 60 µg/mL: 44 ± 23%
A-498 renal carcinoma; Homo sapiens, A498, 216 h, 80 ug/ml, read-out: Percent survival (number of colonies in test dishes to colonies in control dishes times 100)
  viability at 80 µg/mL: 24 ± 18%
A-498 renal carcinoma; Homo sapiens, A498, 216 h, 100 ug/ml, read-out: Percent survival (number of colonies in test dishes to colonies in control dishes times 100)
  viability at 100 µg/mL: 14 ± 9%
A-498 renal carcinoma; Homo sapiens, A498, 216 h, 120 ug/ml, read-out: Percent survival (number of colonies in test dishes to colonies in control dishes times 100)
  viability at 120 µg/mL: 5 ± 6%
A-498 renal carcinoma; Homo sapiens, A498, 216 h, 200 ug/ml, read-out: Percent survival (number of colonies in test dishes to colonies in control dishes times 100)
  viability at 200 µg/mL: 0%
[1]; h2o/h+ (0.01 m hcl), 25° C.
  degraded at 4 h: 100%
  remaining at 4 h: 0%
[1]; [4]
  degraded at 4 h: 79%
  remaining at 4 h: 21%
[1]; [5]
  degraded at 4 h: 100%
  remaining at 4 h: 0%
[1]; 25° C.
  degraded at 24 h: 0%
  remaining at 24 h: 100%
[1]; 50° C.
  degraded at 24 h: 9%
  remaining at 24 h: 91%
[1]; hccl3, HCCl3, 25° C.
  degraded at 26 h: 3%
  remaining at 26 h: 97%
[1]; hccl3, HCCl3, 50° C.
  degraded at 26 h: 37%
  remaining at 26 h: 63%
[1]; hccl3, HCCl3
  degraded at 20 h: 100%
  remaining at 20 h: 0%
[1]; [6]
  degraded at 26 h: 66%
  remaining at 26 h: 34%
[1]; [7]
  degraded at 26 h: 97%
  remaining at 26 h: 3%
[1]; [8]
  degraded at 20 h: 100%
  remaining at 20 h: 0%
[1]; [9]
  degraded at 26 h: 100%
  remaining at 26 h: 0%
[1]; pentane
  degraded at 20 h: 100%
  remaining at 20 h: 0%
[2]
  activity compared with HMM in the human tumor colony formation test systems: consistently greater activity than HMM
[3]; pentane, organic solvent or mixture, read-out: solubility in lipid medium (pentane)
  solubility: 29 mg/mL (≈ 128 mM)
[3]; water, read-out: solubility in aqueous medium (water)
  solubility: 19 mg/mL (≈ 84 mM)
A-204 rhabdomysarcoma; 200 μg/ml
  inhibition of colony formation: Complete inhibition
A-204 rhabdomysarcoma; Homo sapiens, A204, 216 h, 10 ug/ml, read-out: Percent survival (number of colonies in test dishes to colonies in control dishes times 100)
  viability at 10 µg/mL: 99 ± 26%
A-204 rhabdomysarcoma; Homo sapiens, A204, 216 h, 20 ug/ml, read-out: Percent survival (number of colonies in test dishes to colonies in control dishes times 100)
  viability at 20 µg/mL: 87 ± 13%
A-204 rhabdomysarcoma; Homo sapiens, A204, 216 h, 40 ug/ml, read-out: Percent survival (number of colonies in test dishes to colonies in control dishes times 100)
  viability at 40 µg/mL: 76 ± 17%
A-204 rhabdomysarcoma; Homo sapiens, A204, 216 h, 60 ug/ml, read-out: Percent survival (number of colonies in test dishes to colonies in control dishes times 100)
  viability at 60 µg/mL: 48 ± 21%
A-204 rhabdomysarcoma; Homo sapiens, A204, 216 h, 80 ug/ml, read-out: Percent survival (number of colonies in test dishes to colonies in control dishes times 100)
  viability at 80 µg/mL: 20 ± 17%
A-204 rhabdomysarcoma; Homo sapiens, A204, 216 h, 100 ug/ml, read-out: Percent survival (number of colonies in test dishes to colonies in control dishes times 100)
  viability at 100 µg/mL: 4 ± 4%
A-204 rhabdomysarcoma; Homo sapiens, A204, 216 h, 120 ug/ml, read-out: Percent survival (number of colonies in test dishes to colonies in control dishes times 100)
  viability at 120 µg/mL: 1 ± 2%
A-204 rhabdomysarcoma; Homo sapiens, A204, 216 h, 200 ug/ml, read-out: Percent survival (number of colonies in test dishes to colonies in control dishes times 100)
  viability at 200 µg/mL: 0%

Reference: patent US4576945A, “Hexaalkylmelamine-amino-oxy compounds” (priority 1984, dated 1986)
